Data as given in PubChem BioAssay AID2060340 (Molecular Pharmacology Branch, DTP, NCI, 2025).
Several values for one entry are separate records, joined by “and”; a condition that tells them apart may be missing. Identical values can stand only once.

Tested on: 349418-098-R-PDC spheroids, viability, % test/control
Experiment: Anticancer human tumor 349418-098-R-PDC patient-derived lung adenocarcinoma cell line growth inhibition [IpAb]
Conditions: spheroids with HUVEC and MSC; for viability, T/C: stronger effect = lower value
Summary of the method: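 Spheroids of 60% malignant cells, 25% HUVEC and 15% MSC were exposed to targeted agents combined with ipatasertib or abemaciclib. Doses started at or near clinical Cmax (10 microM when unknown) and fell in half-log steps.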

[1] = curve of first compound, second compound 0.1 µM
[2] = curve of first compound, second compound 0.316 µM
[3] = curve of first compound, second compound 1 µM
[4] = curve of first compound, second compound 3.16 µM
[5] = curve of first compound, second compound 10 µM
[6] = second compound 0.1 µM, first compound 0.0316 µM
[7] = second compound 0.1 µM, first compound 0.1 µM
[8] = second compound 0.316 µM, first compound 0.0316 µM
[9] = second compound 0.316 µM, first compound 0.1 µM
[10] = second compound 1 µM, first compound 0.0316 µM
[11] = second compound 1 µM, first compound 0.1 µM
[12] = second compound 3.16 µM, first compound 0.0316 µM
[13] = second compound 3.16 µM, first compound 0.1 µM
[14] = second compound 10 µM, first compound 0.0316 µM
[15] = second compound 10 µM, first compound 0.1 µM

**Q.** Which results are given for `Cn1cnc2c(F)c(Nc3ccc(Br)cc3Cl)c(C(=O)NOCCO)cc21` + CCN1CCN(Cc2ccc(Nc3ncc(F)c(-c4cc(F)c5nc(C)n(C(C)C)c5c4)n3)nc2)CC1?
**A.** IC50 (curve of first compound, second compound 0.01 µM): < 9.49 nM; IC50 (curve of first compound, second compound 0.0316 µM): < 9.49 nM; IC50 [1]: < 9.49 nM; IC50 [2]: < 9.49 nM; IC50 [3]: < 9.49 nM; viability, T/C (second compound 0.01 µM, first compound 0.00949 µM): 41.1%; viability, T/C (second compound 0.01 µM, first compound 0.03 µM): 33.9%; viability, T/C (second compound 0.01 µM, first compound 0.0949 µM): 27.2%; viability, T/C (second compound 0.01 µM, first compound 0.3 µM): 28.7%; viability, T/C (second compound 0.01 µM, first compound 0.949 µM): 17.3%; viability, T/C (second compound 0.01 µM, first compound 3 µM): 8.8%; viability, T/C (second compound 0.0316 µM, first compound 0.00949 µM): 26.7%; viability, T/C (second compound 0.0316 µM, first compound 0.03 µM): 21.7%; viability, T/C (second compound 0.0316 µM, first compound 0.0949 µM): 18.9%; viability, T/C (second compound 0.0316 µM, first compound 0.3 µM): 17.9%; viability, T/C (second compound 0.0316 µM, first compound 0.949 µM): 12.1%; viability, T/C (second compound 0.0316 µM, first compound 3 µM): 7.93%; viability, T/C (second compound 0.1 µM, first compound 0.00949 µM): 15.1%; viability, T/C (second compound 0.1 µM, first compound 0.03 µM): 14.7%; viability, T/C (second compound 0.1 µM, first compound 0.0949 µM): 12%; viability, T/C (second compound 0.1 µM, first compound 0.3 µM): 11.2%; viability, T/C (second compound 0.1 µM, first compound 0.949 µM): 9.1%; viability, T/C (second compound 0.1 µM, first compound 3 µM): 6.69%; viability, T/C (second compound 0.316 µM, first compound 0.00949 µM): 12.1%; viability, T/C (second compound 0.316 µM, first compound 0.03 µM): 11.2%; viability, T/C (second compound 0.316 µM, first compound 0.0949 µM): 10.1%; viability, T/C (second compound 0.316 µM, first compound 0.3 µM): 9.23%; viability, T/C (second compound 0.316 µM, first compound 0.949 µM): 8.49%; viability, T/C (second compound 0.316 µM, first compound 3 µM): 7.04%; viability, T/C (second compound 1 µM, first compound 0.00949 µM): 9.97%; viability, T/C (second compound 1 µM, first compound 0.03 µM): 10.1%; viability, T/C (second compound 1 µM, first compound 0.0949 µM): 10.6%; viability, T/C (second compound 1 µM, first compound 0.3 µM): 8.23%; viability, T/C (second compound 1 µM, first compound 0.949 µM): 8.1%; viability, T/C (second compound 1 µM, first compound 3 µM): 6.68%

**Q.** Which results are given for `Cc1nc(NC(=O)N2CCCC2C(N)=O)sc1-c1ccnc(C(C)(C)C(F)(F)F)c1` (configuration not stated) + CC(C)NCC(C(=O)N1CCN(c2ncnc3c2C(C)CC3O)CC1)c1ccc(Cl)cc1?
**A.** IC50 [1]: 117 nM; IC50 [2]: < 31.6 nM; IC50 [3]: < 31.6 nM; IC50 [4]: < 31.6 nM; IC50 [5]: < 31.6 nM; viability, T/C [6]: 75.5%; viability, T/C [7]: 52.5%; viability, T/C (second compound 0.1 µM, first compound 0.316 µM): 31.8%; viability, T/C (second compound 0.1 µM, first compound 1 µM): 16.8%; viability, T/C (second compound 0.1 µM, first compound 3.16 µM): 14.2%; viability, T/C (second compound 0.1 µM, first compound 10 µM): 12.7%; viability, T/C [8]: 40.3%; viability, T/C [9]: 33.8%; viability, T/C (second compound 0.316 µM, first compound 0.316 µM): 24.9%; viability, T/C (second compound 0.316 µM, first compound 1 µM): 12.6%; viability, T/C (second compound 0.316 µM, first compound 3.16 µM): 13.7%; viability, T/C (second compound 0.316 µM, first compound 10 µM): 9.57%; viability, T/C [10]: 21.9%; viability, T/C [11]: 16.2%; viability, T/C (second compound 1 µM, first compound 0.316 µM): 13.6%; viability, T/C (second compound 1 µM, first compound 1 µM): 11%; viability, T/C (second compound 1 µM, first compound 3.16 µM): 10.2%; viability, T/C (second compound 1 µM, first compound 10 µM): 8.68%; viability, T/C [12]: 11.4%; viability, T/C [13]: 9.53%; viability, T/C (second compound 3.16 µM, first compound 0.316 µM): 9.54%; viability, T/C (second compound 3.16 µM, first compound 1 µM): 7.39%; viability, T/C (second compound 3.16 µM, first compound 3.16 µM): 7.95%; viability, T/C (second compound 3.16 µM, first compound 10 µM): 7.62%; viability, T/C [14]: 8.29%; viability, T/C [15]: 7.93%; viability, T/C (second compound 10 µM, first compound 0.316 µM): 7.48%; viability, T/C (second compound 10 µM, first compound 1 µM): 6.51%; viability, T/C (second compound 10 µM, first compound 3.16 µM): 6.55%; viability, T/C (second compound 10 µM, first compound 10 µM): 5.85%

**Q.** With `CC(C)n1nc(-c2ccc3oc(N)nc3c2)c2c(N)ncnc21` + CC(C)NCC(C(=O)N1CCN(c2ncnc3c2C(C)CC3O)CC1)c1ccc(Cl)cc1 as the compound, how does the IC50 [1] read?
**A.** 0.681 nM

**Q.** What about the IC50 [2] of the same compound?
**A.** < 0.316 nM

**Q.** And the IC50 [3]?
**A.** < 0.316 nM

**Q.** And the IC50 [4]?
**A.** < 0.316 nM

**Q.** What about the IC50 [5] of the same compound?
**A.** < 0.316 nM

**Q.** And the viability, T/C (second compound 0.1 µM, first compound 0.000316 µM)?
**A.** 69.4%

**Q.** And the viability, T/C (second compound 0.1 µM, first compound 0.001 µM)?
**A.** 40.3%

**Q.** What about the viability, T/C (second compound 0.1 µM, first compound 0.00316 µM) of the same compound?
**A.** 14.5%

**Q.** And the viability, T/C (second compound 0.1 µM, first compound 0.01 µM)?
**A.** 7.8%

**Q.** What about the viability, T/C [6] of the same compound?
**A.** 6.65%

**Q.** And the viability, T/C [7]?
**A.** 6.26%

**Q.** And the viability, T/C (second compound 0.316 µM, first compound 0.000316 µM)?
**A.** 31.8%

**Q.** And the viability, T/C (second compound 0.316 µM, first compound 0.001 µM)?
**A.** 17.4%

**Q.** And the viability, T/C (second compound 0.316 µM, first compound 0.00316 µM)?
**A.** 8.31%

**Q.** What about the viability, T/C (second compound 0.316 µM, first compound 0.01 µM) of the same compound?
**A.** 5.95%

**Q.** What about the viability, T/C [8] of the same compound?
**A.** 5.66%

**Q.** What about the viability, T/C [9] of the same compound?
**A.** 5.5%

**Q.** And the viability, T/C (second compound 1 µM, first compound 0.000316 µM)?
**A.** 14.4%

**Q.** And the viability, T/C (second compound 1 µM, first compound 0.001 µM)?
**A.** 8.54%

**Q.** And the viability, T/C (second compound 1 µM, first compound 0.00316 µM)?
**A.** 5.9%

**Q.** What about the viability, T/C (second compound 1 µM, first compound 0.01 µM) of the same compound?
**A.** 4.87%

**Q.** What about the viability, T/C [10] of the same compound?
**A.** 5.35%

**Q.** What about the viability, T/C [11] of the same compound?
**A.** 4.7%

**Q.** And the viability, T/C (second compound 3.16 µM, first compound 0.000316 µM)?
**A.** 10.7%

**Q.** And the viability, T/C (second compound 3.16 µM, first compound 0.001 µM)?
**A.** 6.81%

**Q.** And the viability, T/C (second compound 3.16 µM, first compound 0.00316 µM)?
**A.** 5.04%

**Q.** And the viability, T/C (second compound 3.16 µM, first compound 0.01 µM)?
**A.** 4.7%

**Q.** What about the viability, T/C [12] of the same compound?
**A.** 4.32%

**Q.** What about the viability, T/C [13] of the same compound?
**A.** 5.98%

**Q.** What about the viability, T/C (second compound 10 µM, first compound 0.000316 µM) of the same compound?
**A.** 6.8%

**Q.** And the viability, T/C (second compound 10 µM, first compound 0.001 µM)?
**A.** 5.96%

**Q.** And the viability, T/C (second compound 10 µM, first compound 0.00316 µM)?
**A.** 5.29%

**Q.** What about the viability, T/C (second compound 10 µM, first compound 0.01 µM) of the same compound?
**A.** 3.92%

**Q.** And the viability, T/C [14]?
**A.** 4.43%

**Q.** And the viability, T/C [15]?
**A.** 4.42%

**Q.** `CC(C)n1nc(-c2ccc3oc(N)nc3c2)c2c(N)ncnc21` was tested. Which viability, T/C (compound 0.000316 µM) did it give?
**A.** 93.8% and 89.8%

**Q.** And the viability, T/C (compound 0.001 µM)?
**A.** 72.9% and 60.3%

**Q.** What about the viability, T/C (compound 0.00316 µM) of the same compound?
**A.** 24.7% and 26.2%

**Q.** What about the viability, T/C (compound 0.01 µM) of the same compound?
**A.** 11% and 10.4%

**Q.** And the viability, T/C (compound 0.0316 µM)?
**A.** 8.02% and 7.35%

**Q.** And the viability, T/C (compound 0.1 µM)?
**A.** 7.57% and 6.78%

**Q.** What about the IC50 (curve of compound) of the same compound?
**A.** 1.73 nM and 1.42 nM
